For the assay, the system named is interferon-alpha. The assay can be described thus: Sensitization by a first danger signal to a subsequent Protamine-RNA injection, serum interferon-alpha (ELISA). The conditions noted are these: first injection: 50 micrograms CpG, 10 micrograms imiquimod, 2 micrograms dsRNA or 10 micrograms RNA in particles, then 10 micrograms RNA in Protamine particles, sera 3 h after second injection, vs single Protamine-RNA injection. Type of assay: in vivo, mice. On the procedure: The DNA oligonucleotide “CpG 1585” (invivogen) which is a mouse TLR9 agonist was diluted at 0.5 micrograms per microlitre in PBS. Imiquimod (invivogen) was diluted to 0.1 microgram per microliter in PBS. RNA (mRNA coding for firefly luciferase) and Protamine were diluted to 0.5 mg/ml using pure water. Hundred micrograms RNA (200 microliters) were mixed with hundred micrograms Protamine IPEX (200 microliters) thereby generating approximately 100 nm particles. Forty percent Glucose was added to reach 5% glucose final and 5% Glucose was added so that the final injectable solution contains 10 micrograms RNA (and 10 micrograms Protamine) in 70 microliters.
Mice were injected intravenous with 100 microliters of CpG (50 micrograms DNA “CpG(2h)PR11”) or 100 microliters of imiquimod (10 micrograms Imiquimod “Imi(2h)PR11”) or 70 microliters of Protamine-RNA particles (10 micrograms RNA “PR11(2h)PR11”) and 2 hours later all received 70 microliters of Protamine-RNA (10 micrograms RNA) intravenous. Three mice per group. Sera were drawn 3 hours after this second injection. As controls, mice were injected intravenous with 100 microliters of CpG (50 micrograms “CpG alone”) or 100 microliters of imiquimod (10 micrograms “Imi alone”) or 70 microliters of Protamine-RNA particles (10 micrograms RNA “PR11 alone”). Three mice per group. […] Interferon-alpha was measured in sera using Verikine™ ELISA kit from PBL. […]
For orientation: ELISA stands for enzyme-linked immunosorbent assay.

The structures appear in SMILES notation.

For the compound `CC(C)Cn1cnc2c(N)nc3ccccc3c21` [Imiquimod], the “interferon-alpha in serum when given i.v. as first injection 2 h before Protamine-RNA particles” value is reported as “can sensitize the immune system to produce an enhanced amount of interferon-alpha”. The “interferon-alpha in serum when given i.v. as first injection 2 h before Protamine-RNA particles” value (listed as imiquimod) is “strong (synergistic) interferon production”.
